Test results from PubChem BioAssay AID1996.
≈ marks a conversion by molar mass, not a printed value.

Conditions: buffer; pH 7.4; 200.0 µM
In the case of `Cc1ccc(C(=O)N2CCN(C(=O)C3CCCO3)CC2)cc1` (stereo not drawn), the solubility kinetic is reported as > 45.4 µg/mL.
In the case of `CC1(C)C(=O)Nc2ccccc2N1C(=O)CSc1ncccn1`, the solubility kinetic is reported as > 49.3 µg/mL.
For `O=C(O)CNS(=O)(=O)c1c(Cl)cccc1Cl`, the solubility kinetic was > 42.6 µg/mL.
In the case of `C[n+]1ccn(CC(=O)c2cccs2)c1.[Br-]`, the solubility kinetic is reported as 39 µg/mL.
With `COc1ccccc1P(=O)(c1ccccc1)c1ccccc1NC(C)=O` (stereo not drawn) the solubility kinetic was > 54.8 µg/mL.
`COc1ccc(CNc2ncccc2[N+](=O)[O-])cc1` gave a solubility kinetic of 17 µg/mL (≈ 65.6 µM).
`O=C(CCNC(=O)c1ccc(Cl)cc1)Nc1nc2ccccc2[nH]1` showed a solubility kinetic of 2.3 µg/mL (≈ 6.71 µM).
With `Cl.OCCN1CCN(c2nc3ccccc3nc2-c2ccccc2)CC1` the solubility kinetic was > 55.6 µg/mL.
In the case of `NC(=O)C[C@H](NC(=O)c1ccc(Cl)cc1)C(=O)OCc1ccccc1`, the solubility kinetic is reported as > 54.1 µg/mL.
For `N=c1oc2cc(O)ccc2cc1C(=O)Nc1ccc(Cl)cc1`, the solubility kinetic was 1.1 µg/mL (≈ 3.5 µM).
In the case of `N#Cc1ccc(C(=O)OCC(=O)N2CCOCC2)cc1`, the solubility kinetic is reported as > 41.1 µg/mL.
Work on `O=C(COC(=O)c1cccc(Cl)c1)NC(=O)NCc1ccccc1` yielded a solubility kinetic of 3.6 µg/mL (≈ 10.4 µM).
Compound `O=C1CC(N(O)c2ccccc2)C(=O)N1c1ccc(Cl)c(Cl)c1` (stereo not drawn) has a solubility kinetic of 9.8 µg/mL (≈ 27.9 µM).
With `O=C(N/N=C/c1ccncc1)C12CC3CC(CC(C3)C1)C2` the solubility kinetic was > 42.5 µg/mL.
In the case of `O=C1NC(=O)N(CC2CCCO2)C(=O)/C1=C/c1cccs1` (stereo not drawn), the solubility kinetic is reported as > 46 µg/mL.
For `COc1ccc(NC(=O)NC(c2ccccc2)c2ccccc2)c(OC)c1`, the solubility kinetic was < 0.4 µg/mL.
For `C[n+]1cccc(/C=N/Nc2nc(Cl)c(C#N)c(Cl)c2Cl)c1.[Cl-]`, the solubility kinetic was > 56.6 µg/mL.
Work on `c1ccc(-n2ccnc2)cc1` yielded a solubility kinetic of 19.7 µg/mL (≈ 137 µM).
For `C[Se]C[C@@H](N)C(=O)O.Cl`, the solubility kinetic was > 32.8 µg/mL.
For `C=CCOc1cccc(C2NC(=O)c3ccccc3O2)c1` (stereo not drawn), the solubility kinetic was 3 µg/mL (≈ 10.7 µM).
Work on `O=C(Nc1ccccc1O)C(c1ccccc1)c1ccccc1` yielded a solubility kinetic of 9 µg/mL (≈ 29.7 µM).
For `N/C(=N\O)c1ccc(Oc2ccccc2Cl)c([N+](=O)[O-])c1`, the solubility kinetic was 44.1 µg/mL (≈ 143 µM).
With `Cc1nc2ccccn2c1C(=O)NNC(=O)Nc1ccccc1` the solubility kinetic was > 46.4 µg/mL.
Compound `COc1cc(NC(=O)Cc2ccccc2)c(C(=O)O)cc1OC` has a solubility kinetic of 43.5 µg/mL (≈ 138 µM).
Work on `COc1ccc(NC(=O)COC(=O)CCC2CCCCC2)cc1` yielded a solubility kinetic of 19.4 µg/mL (≈ 60.7 µM).
For `CCCS(=O)(=O)c1csc(C(=O)OC)c1N`, the solubility kinetic was 28.7 µg/mL (≈ 109 µM).
`COc1ccc(C(=O)NC2CCCc3ccccc32)cc1[N+](=O)[O-]` (stereo not drawn) gave a solubility kinetic of 2.4 µg/mL (≈ 7.35 µM).
Compound `COc1cc(/C=C/C(=O)OCC(=O)Nc2cc(S(=O)(=O)N3CCCC3)ccc2Cl)cc(OC)c1OC` has a solubility kinetic of 4.3 µg/mL (≈ 7.98 µM).
Work on `CSc1ccccc1C(=O)C1CCCN(Cc2ccncc2)C1` (stereo not drawn) yielded a solubility kinetic of 41.4 µg/mL (≈ 127 µM).
Compound `CC1CCCC(NC(=O)COC(=O)[C@@H](NC(=O)c2ccc(F)cc2)C(C)C)C1C` (stereo partly drawn) has a solubility kinetic of 8.7 µg/mL (≈ 21.4 µM).
Compound `FC(F)(F)c1ccnc(NCc2ccc(Cl)cc2)n1` has a solubility kinetic of 4.3 µg/mL (≈ 14.9 µM).
With `COc1cccc(C(=O)Nc2cc3c4c(c2)CC(=O)N4CCC3)c1` the solubility kinetic was > 48.4 µg/mL.
In the case of `CNC(=O)/C(C#N)=C/c1cc(C)n(-c2ccc(N3CCOCC3)cc2)c1C`, the solubility kinetic is reported as 1.5 µg/mL (≈ 4.12 µM).
`O=Cc1cccnc1SCc1ccccc1` showed a solubility kinetic of 15.5 µg/mL (≈ 67.6 µM).
In the case of `COc1ccc(C(=O)N[C@H](C(=O)NC2CCCCC2)C(C)C)cc1`, the solubility kinetic is reported as 5.1 µg/mL (≈ 15.3 µM).
In the case of `Cc1c(C(=O)OCC(=O)N(C)c2ccccc2)cccc1[N+](=O)[O-]`, the solubility kinetic is reported as 38.1 µg/mL (≈ 116 µM).
With `CN(CCS(=O)(=O)c1ccc(Cl)cc1)Cc1cccnc1` the solubility kinetic was > 48.7 µg/mL.
For `COC(=O)c1cc(=O)n(-c2c(Cl)cc(C(F)(F)F)cc2Cl)[nH]1`, the solubility kinetic was > 53.3 µg/mL.
`Cc1occc1C(=O)Nc1cccc(S(=O)(=O)N2CCOCC2)c1` showed a solubility kinetic of 52.2 µg/mL (≈ 149 µM).
With `CCCCCc1ccc(CC(=O)N2CCOCC2)cc1` the solubility kinetic was 38.6 µg/mL (≈ 140 µM).
With `COc1cccc(CN2CCN(C3CCOCC3)CC2CCO)c1` (stereo not drawn) the solubility kinetic was 46.3 µg/mL (≈ 138 µM).
For `O=C(O)c1cc2n(n1)C(C(F)(F)F)CC(C1CC1)N2` (stereo not drawn), the solubility kinetic was > 41.3 µg/mL.
For `Cc1nc(=S)c2c([nH]1)-c1ccccc1CC21CCCCC1`, the solubility kinetic was 0.3 µg/mL (≈ 1.01 µM).
`COC(=O)C1=C(C)N(C)C(=O)NC1c1c(OC)ccc2ccccc12` (stereo not drawn) showed a solubility kinetic of 5.4 µg/mL (≈ 15.9 µM).
Work on `N#CCSc1nc2ccccc2c(=O)n1CCCC(=O)NCc1ccco1` yielded a solubility kinetic of 2.5 µg/mL (≈ 6.54 µM).
With `O=C(Nc1cc(S(=O)(=O)N2CCCC2)ccc1Cl)c1cc(F)c(F)c(F)c1F` the solubility kinetic was 17.7 µg/mL (≈ 40.5 µM).
Compound `O=C(O)c1ccccc1C(=O)NCc1ccc2c(c1)OCO2` has a solubility kinetic of 44.9 µg/mL (≈ 150 µM).
In the case of `CC(=O)N1CCN(C(=S)NC(=O)c2ccc(F)cc2)CC1`, the solubility kinetic is reported as > 46.4 µg/mL.
In the case of `CCOC(=O)NC(=O)c1cn(CCNCCO)c(=O)[nH]c1=O`, the solubility kinetic is reported as > 47.1 µg/mL.
In the case of `CC1CC(NC(=O)/C(C#N)=C/c2ccc[nH]2)CC(C)(C)C1` (stereo not drawn), the solubility kinetic is reported as < 0.2 µg/mL.
In the case of `COc1ccccc1N1CCN(C(=O)c2ccco2)CC1`, the solubility kinetic is reported as > 42.9 µg/mL.
For `Cc1ccc(C(=O)NCCCNC(=O)c2ccc(Cl)cc2)cn1`, the solubility kinetic was 36.6 µg/mL (≈ 110 µM).
With `Nc1nc2ccc(C(=O)NCCOC(=O)C3CCCCC3)cc2s1` the solubility kinetic was 12.8 µg/mL (≈ 36.8 µM).
Compound `COc1cccc(NC(=O)C2CCCO2)c1` (stereo not drawn) has a solubility kinetic of 30.5 µg/mL (≈ 138 µM).
For `Cc1ccc(S(=O)(=O)NC2CCCCCC2)cc1`, the solubility kinetic was > 40.1 µg/mL.
For `O=C(NCc1ccccc1F)c1cc(=O)[nH]c2ccccc12`, the solubility kinetic was 4.9 µg/mL (≈ 16.5 µM).
With `CSc1nc(Nc2ccc(Cl)cc2)c(C#N)c(=O)[nH]1` the solubility kinetic was 7.8 µg/mL (≈ 26.6 µM).
For `COc1ccc(CCNC(=O)Cc2ccc(C)cc2)cc1OC`, the solubility kinetic was > 47 µg/mL.
